Here are results for 24 molecules from US20110044938A1 (NYCOMED GMBH, priority 2006, published 2011).

For assay [1], the system named is RKO (RKOp27) human colon adenocarcinoma cells. In words: Alamar Blue cell viability assay, anti-proliferative/cytotoxic activity on proliferating RKO subclones. In kind it is cell-based. The following applies: RKOp27, 72 h, RKO p27 uninduced (proliferating) cells, value = class bound given in Table A, read-out: −logIC50 RKO p27 uninduced (proliferating) (converted). Put shortly: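 Alamar Blue fluorescence (ex 544, em 590 nm) after 72 h compound exposure at 37 °C, 5% CO2, normalised to untreated controls set at 100%. Cells were seeded at 5000 per well and dosed 24 h later with serial semi-logarithmic dilutions in 10% FCS DMEM, four replicates each. −log IC50 [mol/l] was derived from concentration-effect curves.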

In assay [2] the test system is subclones of RKO colon adenocarcinoma cells (RKOp27 or RKOp21) arrested by Ponasterone A. In words: Alamar Blue cell viability assay, cell cycle specific mode of action: cells arrested by ectopic p27Kip1 induced by Ponasterone A versus proliferating cells. The following applies: Homo sapiens, RKO p27 induced (arrested) cells, 10 μM Ponasterone A, 72 hours, value = class bound given in Table A, read-out: −logIC50 RKO p27 induced (arrested) (converted). It counts as cell-based. Put shortly:
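Viability of proliferating versus Ponasterone A (10 μM)-arrested RKOp27/RKOp21 cells after 72 h compound exposure at 37° C, in quadruplicate. Read-out is Alamar Blue fluorescence (544/590 nm) normalised to untreated cells = 100%; values as −log IC50.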
In general terms: The colour change of resazurin is a common sign of viable cells or microbes.

For `N#Cc1c(NC(=O)/C=C/c2cccnc2)sc2c1CCC(COC(=O)NCC1CCCO1)C2` (stereo not drawn) [Example 63, (Tetrahydro-furan-2-ylmethyl)-carbamic acid 3-cyano-2-((E)-3-pyridin-3-yl-allanoylamino)-4,5,6,7-tetrahydro-benzo[b]thiophen-6-ylmethyl ester], the results for the IC50 in assay [1] and in assay [2] were 501 to 2000 nM and no less than 100000 nM, respectively.
As to `Cc1nocc1CNC(=O)OCC1CCc2c(sc(NC(=O)/C=C/c3cccnc3)c2C#N)C1` (stereo not drawn) [Example 64, (3-Methyl-isoxazol-4-ylmethyl)-carbamic acid 3-cyano-2-((E)-3-pyridin-3-yl-allanoylamino)-4,5,6,7-tetrahydro-benzo[b]thiophen-6-ylmethyl ester], the IC50 was 501 to 2000 nM in assay [1] and no less than 100000 nM in assay [2].
Regarding `N#Cc1c(NC(=O)/C=C/c2cccnc2)sc2c1CCC(COC(=O)NCc1nccs1)C2` (stereo not drawn) [Example 65, Thiazol-2-ylmethyl-carbamic acid 3-cyano-2-((E)-3-pyridin-3-yl-allanoylamino)-4,5,6,7-tetrahydro-benzo[b]thiophen-6-ylmethyl ester], the IC50 in assay [1] was 501 to 2000 nM; in assay [2], no less than 100000 nM.
For `Cc1nc(CNC(=O)OCC2CCc3c(sc(NC(=O)/C=C/c4cccnc4)c3C#N)C2)cs1` (stereo not drawn) [Example 66, (2-Methyl-thiazol-4-ylmethyl)-carbamic acid 3-cyano-2-((E)-3-pyridin-3-yl-allanoylamino)-4,5,6,7-tetrahydro-benzo[b]thiophen-6-ylmethyl ester], the figures for the IC50 in assay [1] and in assay [2] were no more than 501 nM and no less than 100000 nM, respectively.
The corresponding values for `Cc1csc(CNC(=O)OCC2CCc3c(sc(NC(=O)/C=C/c4cccnc4)c3C#N)C2)n1` (stereo not drawn) [Example 67, (4-Methyl-thiazol-2-ylmethyl)-carbamic acid 3-cyano-2-((E)-3-pyridin-3-yl-allanoylamino)-4,5,6,7-tetrahydro-benzo[b]thiophen-6-ylmethyl ester] are no more than 501 nM and no less than 100000 nM.
The corresponding values for `N#Cc1c(NC(=O)/C=C/c2cccnc2)sc2c1CCC(COC(=O)N1CCCC1)C2` (stereo not drawn) [Example 68, Pyrrolidine-1-carboxylic acid 3-cyano-2-((E)-3-pyridin-3-yl-allanoylamino)-4,5,6,7-tetrahydro-benzo[b]thiophen-6-ylmethyl ester] are no more than 501 nM and no less than 100000 nM.
The corresponding values for `N#Cc1c(NC(=O)/C=C/c2cccnc2)sc2c1CC[C@H](COC(=O)N1CCCC1)C2` [Example 68a, Pyrrolidme-1-carboxyhc acid (S)-3-cyano-2-((E)-3-pyridin-3-yl-allanoylamino)-4,5,6,7-tetrahydro-benzo[b]thiophen-6-ylmethyl ester] are no more than 501 nM and no less than 100000 nM.
As for `N#Cc1c(NC(=O)/C=C/c2cccnc2)sc2c1CC[C@@H](COC(=O)N1CCCC1)C2` [Example 68b, Pyrrolidine-1-carboxylic acid (R)-3-cyano-2-((E)-3-pyridin-3-yl-allanoylamino)-4,5,6,7-tetrahydro-benzo[b]thiophen-6-ylmethyl ester], the IC50 in assay [1] is no more than 501 nM; in assay [2], no less than 100000 nM.
As to `CCn1nccc1CNC(=O)OC1CCc2c(sc(NC(=O)/C=C/c3cccnc3)c2C#N)C1` (stereo not drawn) [Example 69, (2-Ethyl-2H-pyrazol-3-ylmethyl)-carbamic acid 3-cyano-2-((E)-3-pyridin-3-yl-allanoylamino)-4,5,6,7-tetrahydro-benzo[b]thiophen-6-yl ester], the IC50 is no more than 501 nM in assay [1] and no less than 100000 nM in assay [2].
Take `N#Cc1c(NC(=O)/C=C/c2cccnc2)sc2c1CCC(OC(=O)NCC1CCCO1)C2` (stereo not drawn) [Example 70, (Tetrahydro-furan-2-ylmethyl)-carbamic acid 3-cyano-2-((E)-3-pyridin-3-yl-allanoylamino)-4,5,6,7-tetrahydro-benzo[b]thiophen-6-yl ester]: the IC50 in assay [1] was 501 to 2000 nM; in assay [2] it was no less than 100000 nM.
The corresponding values for `Cc1oncc1CNC(=O)OCC1CCc2c(sc(NC(=O)/C=C/c3cccnc3)c2C#N)C1` (stereo not drawn) [Example 71, (5-Methyl-isoxazol-4-ylmethyl)-carbamic acid 3-cyano-2-((E)-3-pyridin-3-yl-allanoylamino)-4,5,6,7-tetrahydro-benzo[b]thiophen-6-ylmethyl ester] are 501 to 2000 nM and no less than 100000 nM.
The corresponding values for `Cc1nnc(CNC(=O)OCC2CCc3c(sc(NC(=O)/C=C/c4cccnc4)c3C#N)C2)o1` (stereo not drawn) [Example 72, (5-Methyl-[1,3,4]oxadiazol-2-ylmethyl)-carbamic acid 3-cyano-2-((E)-3-pyridin-3-yl-allanoylamino)-4,5,6,7-tetrahydro-benzo[b]thiophen-6-ylmethyl ester] are no more than 501 nM and no less than 100000 nM.
The corresponding values for `N#Cc1c(NC(=O)/C=C/c2cccnc2)sc2c1CCC(COC(=O)N1CC(O)C1)C2` (stereo not drawn) [Example 73, 3-Hydroxy-azetidine-1-carboxylic acid 3-cyano-2-((E)-3-pyridin-3-yl-allanoylamino)-4,5,6,7-tetrahydro-benzo[b]thiophen-6-ylmethyl ester] are no more than 501 nM and no less than 100000 nM.
Regarding `N#Cc1c(NC(=O)/C=C/c2cccnc2)sc2c1CC[C@H](COC(=O)N1CC(O)C1)C2` [Example 73a, 3-Hydroxy-azetidine-1 - carboxylic acid (S)-3-cyano-2-((E)-3-pyridin-3-yl-allanoylamino)-4,5,6,7-tetrahydro-benzo[b]thiophen-6-ylmethyl ester], the IC50 in assay [1] was no more than 501 nM; in assay [2], no less than 100000 nM.
For `N#Cc1c(NC(=O)/C=C/c2cccnc2)sc2c1CC[C@@H](COC(=O)N1CC(O)C1)C2` [Example 73b, 3-Hydroxy-azetidine-l - carboxylic acid (R)-3-cyano-2-((E)-3-pyridin-3-yl-allanoylamino)-4,5,6,7-tetrahydro-benzo[b]thiophen-6-ylmethyl ester], the IC50 in assay [1] is 501 to 2000 nM; in assay [2] it was no less than 100000 nM.
The corresponding values for `CN(C)C(=O)OCC1CCc2c(sc(NC(=O)/C=C/c3cccnc3)c2C#N)C1` (stereo not drawn) [Example 74, Dimethyl-carbamic acid 3-cyano-2-((E)-3-pyridin-3-yl-allanoylamino)-4,5,6,7-tetrahydro-benzo[b]thiophen-6-ylmethyl ester] are no more than 501 nM and no less than 100000 nM.
As for `CN(C)C(=O)OC[C@H]1CCc2c(sc(NC(=O)/C=C/c3cccnc3)c2C#N)C1` [Example 74a, Dimethyl-carbamic acid (S)-3-cyano-2-((E)-3-pyridin-3-yl-allanoylamino)-4,5,6,7-tetrahydro-benzo[b]thiophen-6-ylmethyl ester], the IC50 in assay [1] is no more than 501 nM; in assay [2] it was no less than 100000 nM.
`CN(C)C(=O)OC[C@@H]1CCc2c(sc(NC(=O)/C=C/c3cccnc3)c2C#N)C1` [Example 74b, Dimethyl-carbamic acid (R)-3-cyano-2-((E)-3-pyridin-3-yl-allanoylamino)-4,5,6,7-tetrahydro-benzo[b]thiophen-6-ylmethyl ester]: the figures for the IC50 in assay [1] and in assay [2] were no more than 501 nM and no less than 100000 nM, respectively.
Regarding `N#Cc1c(NC(=O)/C=C/c2cccnc2)sc2c1CCC(COC(=O)N1CCC(O)C1)C2` (stereo not drawn) [Example 75, 3-Hydroxy-pyrrolidine-1-carboxylic acid 3-cyano-2-((E)-3-pyridin-3-yl-allanoylamino)-4,5,6,7-tetrahydro-benzo[b]thiophen-6-ylmethyl ester], the IC50 in assay [1] was no more than 501 nM; in assay [2], no less than 100000 nM.
The corresponding values for `N#Cc1c(NC(=O)/C=C/c2cccnc2)sc2c1CCC(OC(=O)N1CCC(O)C1)C2` (stereo not drawn) [Example 76, 3-Hydroxy-pyrrolidine-1-carboxylic acid 3-cyano-2-((E)-3-pyridin-3-yl-allanoylamino)-4,5,6,7-tetrahydro-benzo[b]thiophen-6-yl ester] are no more than 501 nM and no less than 100000 nM.
The corresponding values for `N#Cc1c(NC(=O)/C=C/c2cccnc2)sc2c1CCC(OC(=O)N1CC(O)C1)C2` (stereo not drawn) [Example 77, 3-Hydroxy-azetidine-1-carboxylic acid 3-cyano-2-((E)-3-pyridin-3-yl-allanoylamino)-4,5,6,7-tetrahydro-benzo[b]thiophen-6-yl ester] are no more than 501 nM and no less than 100000 nM.
The corresponding values for `CN(C)C(=O)OC1CCc2c(sc(NC(=O)/C=C/c3cccnc3)c2C#N)C1` (stereo not drawn) [Example 78, Dimethyl-carbamic acid 3-cyano-2-((E)-3-pyridin-3-yl-allanoylamino)-4,5,6,7-tetrahydro-benzo[b]thiophen-6-yl ester] are no more than 501 nM and no less than 100000 nM.
With `N#Cc1c(NC(=O)/C=C/c2cccnc2)sc2c1CCC(COC(=O)N1CCC1)C2` (stereo not drawn) [Example 79, Azetidine-1-carboxylic acid 3-cyano-2-((E)-3-pyridin-3-yl-allanoylamino)-4,5,6,7-tetrahydro-benzo[b]thiophen-6-ylmethyl ester], the IC50 was 501 to 2000 nM in assay [1] and no less than 100000 nM in assay [2].
Turning to `N#Cc1c(NC(=O)/C=C/c2cccnc2)sc2c1CCC(OC(=O)N1CCC1)C2` (stereo not drawn) [Example 80, Azetidine-1-carboxylic acid 3-cyano-2-((E)-3-pyridin-3-yl-allanoylamino)-4,5,6,7-tetrahydro-benzo[b]thiophen-6-yl ester], the figures for the IC50 in assay [1] and in assay [2] were no more than 501 nM and no less than 100000 nM, respectively.
